{"source": "PubChem BioAssay (NCI)", "assay_in_all_cases": "inhibition of tumour cell growth, NCI panel, 384-well format", "key": {"786-0 renal": {"system": "786-0 renal"}, "A498 renal": {"system": "A498 renal"}, "A549 NSCLC": {"system": "A549 NSCLC"}, "ACHN renal": {"system": "ACHN renal"}, "BT-549 breast": {"system": "BT-549 breast"}, "CAKI-1 renal": {"system": "CAKI-1 renal"}, "CCRF-CEM leukemia": {"system": "CCRF-CEM leukemia"}, "COLO 205 colon": {"system": "COLO 205 colon"}, "DU-145 prostate": {"system": "DU-145 prostate"}, "EKVX NSCLC": {"system": "EKVX NSCLC"}, "HCC-2998 colon": {"system": "HCC-2998 colon"}, "HCT-15 colon": {"system": "HCT-15 colon"}, "HL-60(TB) leukemia": {"system": "HL-60(TB) leukemia"}, "HOP-62 NSCLC": {"system": "HOP-62 NSCLC"}, "HOP-92 NSCLC": {"system": "HOP-92 NSCLC"}, "HS 578T breast": {"system": "HS 578T breast"}, "HT29 colon": {"system": "HT29 colon"}, "IGROV1 ovarian": {"system": "IGROV1 ovarian"}, "K-562 leukemia": {"system": "K-562 leukemia"}, "KM12 colon": {"system": "KM12 colon"}, "LOX IMVI melanoma": {"system": "LOX IMVI melanoma"}, "M14 melanoma": {"system": "M14 melanoma"}, "MALME-3M melanoma": {"system": "MALME-3M melanoma"}, "MCF7 breast": {"system": "MCF7 breast"}, "MDA-MB-231 breast": {"system": "MDA-MB-231 breast"}, "MDA-MB-435 melanoma": {"system": "MDA-MB-435 melanoma"}, "MDA-MB-468 breast": {"system": "MDA-MB-468 breast"}, "MOLT-4 leukemia": {"system": "MOLT-4 leukemia"}}, "note": "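Abbreviation: GI50, concentration required for 50% inhibition of growth. TGI marks complete inhibition of growth.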", "data": [{"compound": "O=C(NCCCc1cn[nH]c1)c1ccc(-c2ccncc2)c(C#Cc2ccc(F)cc2)c1", "values": [{"measurement": "GI50", "setting": "786-0 renal", "value": "< 10", "unit": "nM"}, {"measurement": "TGI", "setting": "786-0 renal", "value": "< 10", "unit": "nM"}, {"measurement": "GI50", "setting": "A498 renal", "value": "< 10", "unit": "nM"}, {"measurement": "TGI", "setting": "A498 renal", "value": 252, "unit": "nM"}, {"measurement": "GI50", "setting": "A549 NSCLC", "value": "< 10", "unit": "nM"}, {"measurement": "TGI", "setting": "A549 NSCLC", "value": "< 10", "unit": "nM"}, {"measurement": "GI50", "setting": "ACHN renal", "value": "< 10", "unit": "nM"}, {"measurement": "TGI", "setting": "ACHN renal", "value": "< 10", "unit": "nM"}, {"measurement": "GI50", "setting": "BT-549 breast", "value": "< 10", "unit": "nM"}, {"measurement": "TGI", "setting": "BT-549 breast", "value": "< 10", "unit": "nM"}, {"measurement": "GI50", "setting": "CAKI-1 renal", "value": "< 10", "unit": "nM"}, {"measurement": "TGI", "setting": "CAKI-1 renal", "value": "< 10", "unit": "nM"}, {"measurement": "GI50", "setting": "CCRF-CEM leukemia", "value": "< 10", "unit": "nM"}, {"measurement": "TGI", "setting": "CCRF-CEM leukemia", "value": "< 10", "unit": "nM"}, {"measurement": "GI50", "setting": "COLO 205 colon", "value": "< 10", "unit": "nM"}, {"measurement": "TGI", "setting": "COLO 205 colon", "value": "< 10", "unit": "nM"}, {"measurement": "GI50", "setting": "DU-145 prostate", "value": "< 10", "unit": "nM"}, {"measurement": "TGI", "setting": "DU-145 prostate", "value": "< 10", "unit": "nM"}, {"measurement": "GI50", "setting": "EKVX NSCLC", "value": "< 10", "unit": "nM"}, {"measurement": "TGI", "setting": "EKVX NSCLC", "value": "< 10", "unit": "nM"}, {"measurement": "GI50", "setting": "HCC-2998 colon", "value": "< 10", "unit": "nM"}, {"measurement": "TGI", "setting": "HCC-2998 colon", "value": "< 10", "unit": "nM"}, {"measurement": "GI50", "setting": "HCT-15 colon", "value": "< 10", "unit": "nM"}, {"measurement": "TGI", "setting": "HCT-15 colon", "value": "< 10", "unit": "nM"}, {"measurement": "GI50", "setting": "HL-60(TB) leukemia", "value": "< 10", "unit": "nM"}, {"measurement": "TGI", "setting": "HL-60(TB) leukemia", "value": "< 10", "unit": "nM"}, {"measurement": "GI50", "setting": "HOP-62 NSCLC", "value": "< 10", "unit": "nM"}, {"measurement": "TGI", "setting": "HOP-62 NSCLC", "value": "< 10", "unit": "nM"}, {"measurement": "GI50", "setting": "HOP-92 NSCLC", "value": "< 10", "unit": "nM"}, {"measurement": "TGI", "setting": "HOP-92 NSCLC", "value": "< 10", "unit": "nM"}, {"measurement": "GI50", "setting": "HS 578T breast", "value": "< 10", "unit": "nM"}, {"measurement": "TGI", "setting": "HS 578T breast", "value": "< 10", "unit": "nM"}, {"measurement": "GI50", "setting": "HT29 colon", "value": "< 10", "unit": "nM"}, {"measurement": "TGI", "setting": "HT29 colon", "value": "< 10", "unit": "nM"}, {"measurement": "GI50", "setting": "IGROV1 ovarian", "value": "< 10", "unit": "nM"}, {"measurement": "TGI", "setting": "IGROV1 ovarian", "value": "< 10", "unit": "nM"}, {"measurement": "GI50", "setting": "K-562 leukemia", "value": "< 10", "unit": "nM"}, {"measurement": "TGI", "setting": "K-562 leukemia", "value": "< 10", "unit": "nM"}, {"measurement": "GI50", "setting": "KM12 colon", "value": "< 10", "unit": "nM"}, {"measurement": "TGI", "setting": "KM12 colon", "value": "< 10", "unit": "nM"}, {"measurement": "GI50", "setting": "LOX IMVI melanoma", "value": "< 10", "unit": "nM"}, {"measurement": "TGI", "setting": "LOX IMVI melanoma", "value": 15.6, "unit": "nM"}, {"measurement": "GI50", "setting": "M14 melanoma", "value": "< 10", "unit": "nM"}, {"measurement": "TGI", "setting": "M14 melanoma", "value": "< 10", "unit": "nM"}, {"measurement": "GI50", "setting": "MALME-3M melanoma", "value": "< 10", "unit": "nM"}, {"measurement": "TGI", "setting": "MALME-3M melanoma", "value": "< 10", "unit": "nM"}, {"measurement": "GI50", "setting": "MCF7 breast", "value": 13, "unit": "nM"}, {"measurement": "TGI", "setting": "MCF7 breast", "value": 26.9, "unit": "nM"}, {"measurement": "GI50", "setting": "MDA-MB-231 breast", "value": "< 10", "unit": "nM"}, {"measurement": "TGI", "setting": "MDA-MB-231 breast", "value": "< 10", "unit": "nM"}, {"measurement": "GI50", "setting": "MDA-MB-435 melanoma", "value": "< 10", "unit": "nM"}, {"measurement": "TGI", "setting": "MDA-MB-435 melanoma", "value": "< 10", "unit": "nM"}, {"measurement": "GI50", "setting": "MDA-MB-468 breast", "value": "< 10", "unit": "nM"}, {"measurement": "TGI", "setting": "MDA-MB-468 breast", "value": "< 10", "unit": "nM"}, {"measurement": "GI50", "setting": "MOLT-4 leukemia", "value": "< 10", "unit": "nM"}]}]}
